{"source": "patent US20030220521A1", "about": "“Renal-selective prodrugs for control of renal sympathetic nerve activity in the treatment of hypertension” (G.D. Searle & Co., priority 1989, published 2003)", "tested_on": "conscious SHR", "assay": "Assay XIII: antihypertensive experiments in conscious SHR (renal denervation, bulbocapnine)", "type": "in vivo, rat", "method": "For antihypertensive experiments, male SHR (11-13 weeks of age; Harlan Sprague-Dawley, Inc.; Indianapolis, Ind.) were habituated for 3-4 days in individual experimental cages, which became their home cages for the duration of the study. Five to seven days before experimentation, SHR were anesthetized with chloral hydrate (400 mg/kg; Sigma Chemical Co., St. Louis, Mo.) and catheters were implanted into a femoral artery and vein. The catheters were led to the back of the neck, exteriorized, and channeled through a tether and swivel system (Alice King Chatham, Los Angeles, Calif.). Surgical renal denervation was performed as above. […] In separate groups of conscious SHR, Ex. #859 (5 mg/kg/hr, n=6) was infused alone, Ex. #859 (5 mg/kg/hr, n=6) was coinfused with bulbocapnine (100 μg/kg/min), or Ex. #859 (10 mg/kg/hr, n=6) was infused 5-7 days after surgical renal denervation. Surgical renal denervation was performed as described above. After a one hour control measure of mean arterial pressure, compounds were infused for four hours and mean arterial pressure was measured continuously."}
{"smiles": "CCCCc1ccc(C(=O)NNC(=O)CCC(NC(C)=O)C(=O)O)nc1", "note": "[Ex. #859, N-acetyl-L-glutamic acid, 5-[(5-butyl-2-pyridinyl)-carbonyl]hydrazide]", "values": [{"measurement": "Mean arterial pressure", "setting": "BULBO: 5 mg/kg/hr coinfused with bulbocapnine 100 μg/kg/min, 0 hours", "result": "168 ± 8"}, {"measurement": "Mean arterial pressure", "setting": "BULBO: 5 mg/kg/hr coinfused with bulbocapnine 100 μg/kg/min, 1 hour", "result": "158 ± 6"}, {"measurement": "Mean arterial pressure", "setting": "BULBO: 5 mg/kg/hr coinfused with bulbocapnine 100 μg/kg/min, 2 hours", "result": "148 ± 5"}, {"measurement": "Mean arterial pressure", "setting": "BULBO: 5 mg/kg/hr coinfused with bulbocapnine 100 μg/kg/min, 3 hours", "result": "140 ± 7"}, {"measurement": "Mean arterial pressure", "setting": "BULBO: 5 mg/kg/hr coinfused with bulbocapnine 100 μg/kg/min, 4 hours", "result": "140 ± 5"}, {"measurement": "Mean arterial pressure", "setting": "DNX: 10 mg/kg/hr after surgical renal denervation, 0 hours", "result": "157 ± 3"}, {"measurement": "Mean arterial pressure", "setting": "DNX: 10 mg/kg/hr after surgical renal denervation, 1 hour", "result": "155 ± 4"}, {"measurement": "Mean arterial pressure", "setting": "DNX: 10 mg/kg/hr after surgical renal denervation, 2 hours", "result": "53 ± 4"}, {"measurement": "Mean arterial pressure", "setting": "DNX: 10 mg/kg/hr after surgical renal denervation, 3 hours", "result": "150 ± 4"}, {"measurement": "Mean arterial pressure", "setting": "DNX: 10 mg/kg/hr after surgical renal denervation, 4 hours", "result": "147 ± 4"}, {"measurement": "effect on mean arterial pressure over a four hour period", "setting": "conscious SHR, 5 mg/kg/hr coinfused with bulbocapnine (100 μg/kg/min)", "result": "lowered mean arterial pressure similar to Ex. #859 alone"}, {"measurement": "antihypertensive response", "setting": "conscious SHR, 10 mg/kg/hr, 5-7 days after surgical renal denervation", "result": "prevented the antihypertensive response"}, {"measurement": "effect on mean arterial pressure over a four hour period", "setting": "conscious SHR, continuous infusion 5 mg/kg/hr alone", "result": "antihypertensive"}, {"measurement": "Mean arterial pressure", "setting": "infused alone 5 mg/kg/hr, 0 hours", "result": "177 ± 6"}, {"measurement": "Mean arterial pressure", "setting": "infused alone 5 mg/kg/hr, 1 hour", "result": "172 ± 6"}, {"measurement": "Mean arterial pressure", "setting": "infused alone 5 mg/kg/hr, 2 hours", "result": "170 ± 7"}, {"measurement": "Mean arterial pressure", "setting": "infused alone 5 mg/kg/hr, 3 hours", "result": "164 ± 7"}, {"measurement": "Mean arterial pressure", "setting": "infused alone 5 mg/kg/hr, 4 hours", "result": "154 ± 6"}]}
